“Also recorded” adds a separate entry of the source.
Experiments:
Format in all cases: cell-based, human
[1] = tested on: p44/42 MAPK (ERK1/2) in CLL B cells; assay: Immunoblot of ERK1/2 phosphorylation in CLL B cells; details: SDF-1α 200 ng/ml; for induction of phosphorylation of ERK1/2: 3 or 10 minutes, rhBAFF 50 ng/ml
Procedure: (§1) Cell lysates were prepared with RIPA buffer (10 mM Tris (pH 7.4), 150 mM NaCl, 1% Triton x 100, 1% deoxycholate, 0.1% SDS, 5 mM EDTA), containing 1 mM PMSF, 0.28 TIU/ml aprotinin, 50 μg/ml leupeptin, 1 mM benzamidine, 0.7 μg/ml pepstatin. Lysates were normalized for total protein (20 μg), subjected to SDS-PAGE (4-15% gradient gels, Bio-Rad, Hercules, Calif.) and immunoblot assay. We incubated the blots with secondary antibodies that were conjugated with horseradish peroxidase. Blots then were prepared for enhanced chemiluminescence (ECL) detection system (Amersham, Little Chalfont, Buckinghamshire, UK) and subsequent autoradiography with Super RX film (Fuji, Tokyo, Japan). The mouse mAb against APRIL (APRIL8) was from Alexis Biochemicals. The mouse mAb against inhibitor of kappa B-α (IκκBα was from Imgenex (San Diego, Calif.). The antibodies against anti-phosho-MAP kinase Erk1/2 and anti-MAP kinase Erk1/2-CT were purchased from Upstate Biotechnology. Antibodies against AKT or phospho-AKT (Ser473) were from Cell Signaling (Beverly, Mass.). Rabbit polyclonal antibodies (Mcl-1, Bcl-2, and Bax) were raised against synthetic peptides.21 Also primary antibodies included β-actin (Sigma Immunochemicals, St Louis, Mo.). Anti-p52 and anti-p65 antibodies were purchased from Upstate Biotechnology.

AKT in CLL B cells = assay: Immunoblot of AKT (Ser473) phosphorylation in CLL B cells; details: SDF-1α 200 ng/ml; for induction of phosphorylation/activation of AKT (Ser473): 3 or 10 minutes, rhBAFF 50 ng/ml
Procedure: as §1

[2] = tested on: canonical NF-κB1 pathway in CLL B cells; assay: Immunoblot of canonical NF-κB1 pathway activation (IκBα degradation/phosphorylation, p65 nuclear translocation) in CLL B cells; details: concentrations that promote CLL cell survival; rhBAFF 50 ng/ml, rhAPRIL 500 ng/ml
Procedure: as §1
For fractionation experiments, cells were collected by centrifugation and washed with PBS. The cell pellet containing 5×10^6 cells was suspended in 100 μl of hypotonic buffer (50 mM Tris (pH7.4), 5 mM EDTA, 10 mM NaCl, 0.05% NP-40, 1 mM PMSF, 10 μg/ml Aprotinin, 10 μg/ml Leupeptin, 10 μg/ml Pepstatin, 10 mM β-Glycerophosphate, 1 mM Na-Vanadate, 1 mM NaF). After 10 minutes the lysate was spun and the supernatant was collected as cytoplasmic lysates. The pellet was washed 5 times in hypotonic buffer containing 0.1% NP-40. The remaining pellet was suspended in 100 μl RIPA buffer containing protease and phosphatase inhibitors. After an appropriate amount of 3× sample buffer (200 mM Tris (pH 6.8), 30 mM EDTA, 30% Glycerol, 6% SDS) was added, the sample was boiled for 10 minutes, spun for 10 minutes and the supernatant was recovered as nucleus lysates. Anti-NF kappa B p52 and p65 were purchased from Upstate Biotechnology. Anti-SP-1 was purchased from Santa Cruz Biotechnology (Santa Cruz, Calif.).
Cell lysates were prepared with radioimmunoprecipitation assay (RIPA) buffer (10 mM Tris [pH 7.4], 150 mM NaCl, 1% Triton X-100, 0.1% deoxycholate, 0.1% SDS, 5 mM EDTA), containing 1× complete protease inhibitor cocktail (Roche diagnostics), 1 mM sodium fluoride (NaF), and 1 mM sodium vanadate (Na3VO4). Lysates were normalized for total protein (25 μg) and subjected to SDS-PAGE (4-15% gradient gels, Bio-Rad, Hercules, Calif.) and immunoblot assay. We incubated the blots with secondary antibodies that were conjugated with horseradish peroxidase. Blots then were prepared for enhanced chemiluminescence (ECL) detection system (Amersham, Little Chalfont, United Kingdom) and subsequent autoradiography with Super RX film (Fuji, Tokyo, Japan).
For fractionation experiments, cells were collected by centrifugation and washed with PBS. The cell pellet containing 5×10^6 cells was suspended in 100 μl of hypotonic buffer (50 mM Tris [pH7.4], 5 mM EDTA, 10 mM NaCl, 0.05% Nonidet P40 [NP-40]), containing 1× complete protease inhibitor cocktail, 1 mM NaF, and 1 mM Na3VO4. After 10 minutes, the lysate was spun and the supernatant was collected as cytoplasmic lysates. […]

Mcl-1 in CLL B cells = assay: Immunoblot of Mcl-1 expression in CLL B cells; details: short-term culture of isolated CLL B cells
Procedure: as §1

[3] = tested on: NF-κB2/p100 pathway in CLL B cells; assay: Immunoblot of alternative NF-κB2 pathway activation (p100 to p52, p52 nuclear translocation) in CLL B cells; details: concentrations that promote CLL cell survival; rhBAFF 50 ng/ml, rhAPRIL 500 ng/ml, 24 hours
Procedure: as §1
For fractionation experiments, cells were collected by centrifugation and washed with PBS. The cell pellet containing 5×10^6 cells was suspended in 100 μl of hypotonic buffer (50 mM Tris (pH7.4), 5 mM EDTA, 10 mM NaCl, 0.05% NP-40, 1 mM PMSF, 10 μg/ml Aprotinin, 10 μg/ml Leupeptin, 10 μg/ml Pepstatin, 10 mM β-Glycerophosphate, 1 mM Na-Vanadate, 1 mM NaF). After 10 minutes the lysate was spun and the supernatant was collected as cytoplasmic lysates. The pellet was washed 5 times in hypotonic buffer containing 0.1% NP-40. The remaining pellet was suspended in 100 μl RIPA buffer containing protease and phosphatase inhibitors. […]

[4] = tested on: Bcl-2, Bax, Bcl-xL in CLL B cells; assay: Immunoblot of Bcl-2, Bax, Bcl-xL expression in CLL B cells; details: short-term culture of isolated CLL B cells
Procedure: as §1

[5] = tested on: isolated CD19+ CLL B cells; assay: Viability of isolated CLL B cells cultured without NLC (DiOC6/PI flow cytometry); details: rhBAFF 50 ng/ml, rhAPRIL 500 ng/ml; samples of 3 patients
Procedure: (§2) Freshly thawed CLL B cells were cultured at the concentration of 1×10^6/ml under various conditions. Determination of CLL cell viability in this study was based on the analysis of mitochondrial transmembrane potential (Δψm) using 3,3′-dehexyloxacarbocyamine iodine (DiOC6) and cell membrane permeability to PI, as described.22 For viability assays, 100 μl of the cell culture was collected at the indicated time points and transferred to polypropylene tubes containing 100 μl of 60 nmol/l DiOC6 (Molecular Probes) and 10 μg/ml PI in FACS buffer. The cells then were incubated at 37° C. for 15 minutes and analyzed within 30 minutes by flow cytometry using a FACSCalibur (Becton Dickinson). Fluorescence was recorded at 525 nm (FL-1) for DiOC6 and at 600 nm (FL-3) for PI.

transfected CLL cells = assay: Viability of CLL cells transfected with SR-IκBα or control vector (Amaxa nucleofection); details: rhBAFF 50 ng/ml or rhAPRIL 500 ng/ml for 24 hours, added four hours after transfection
Procedure: as §2, with “of 1×10^6/mL” for “of 1×10^6/ml”, “as described.” for “as described.22”, “of 80” for “of 60”, “and 2” for “and 10”
CLL cells were transfected using the Amaxa nucleofection technology (Amaxa). Cells were resuspended in solution from human B cell nucleofector kit, also available as part of Amaxa cell optimization kit, according to the manufacturer's instructions. Briefly, 100 μl of 5×10^6 cell suspension mixed with 5 μg cDNA was transferred to the provided cuvette and nucleofected with an Amaxa Nucleofector apparatus (Amaxa). Cells were transfected using the U-15 pulsing parameter and immediately transferred into wells containing 37° C. pre-warmed culture medium in 12-well plates. After transfection, cells were cultured from 4 to 48 hours before analyzing by FACS. pmaxGFP was used to gauge transfection efficiency.

[6] = tested on: NF-κB1 binding activity in CLL cells; assay: Electrophoretic mobility shift assay of NF-κB DNA binding in nuclear extracts of CLL cells; details: rhBAFF 50 ng/ml or rhAPRIL 500 ng/ml, 24 hours
Procedure: Nuclear proteins were extracted using a nuclear extraction kit (Pierce, Rockford, Ill.) in presence of 1× complete protease inhibitor cocktail (Roche diagnostics). Total protein was measured using a modified Bradford test (Bio-Rad, Hercules, Calif.). 2 μg of nuclear protein extracts were incubated on ice for 30 min with antibodies to p50 and p65 (Santa Cruz Biotechnology). Later, a radiolabeled double stranded probe that encompassed the κB1 site was added, followed by incubation at room temperature for 30 min. Samples were loaded on a 6% acrylamide gel and run at 150 volts for three and a half hours.

[7] = 3 minutes, 4F at 50 nM or 500 nM

Row | Substance | block of SDF-1α-induced phosphorylation of ERK1/2 [1, 7] | block of SDF-1α-induced phosphorylation of AKT at Ser473 (AKT in CLL B cells; [7]) | activation of classical/canonical NF-κB pathway (IκBα degradation, p65 translocation to nucleus) [2] | induction of phosphorylation of ERK1/2 [1] | induction of phosphorylation/activation of AKT (Ser473) (AKT in CLL B cells) | induction of Mcl-1 expression in CLL B cells (Mcl-1 in CLL B cells) | activation of NF-κB2 (processing of p100 to p52, translocation of p52 to the nucleus) [3] | changes in levels of Bcl-2, Bax, or Bcl-xL [4] | viability of isolated CLL cells cultured without NLC versus control [5] | viability of CLL cells transfected with SR-IκBα (transfected CLL cells) | viability of CLL cells transfected with control expression plasmid (transfected CLL cells) | NF-κB consensus motif binding proteins in nuclear extracts (EMSA) [6]
1 | 4F-benzoyl-TE14011 [reference compound] | could be blocked | could be blocked | – | – | – | – | – | – | – | – | – | –
2 | SDF-1α | – | – | did not have this activity | induced phosphorylation of ERK1/2 | induced phosphorylation of AKT at Ser473 | could not induce isolated CLL B cells to express higher levels of Mcl-1 | did not observe activation of NF-κB2 | did not observe significant changes | – | – | – | –
3 | rhAPRIL: recombinant human a proliferation-inducing ligand, purchased from Alexis Biochemicals | – | – | induced degradation of the inhibitor of kappa B (IκBα) and translocation of p65 to the nuclear fraction; also recorded: induced translocation of p65 to the nucleus | could not induce phosphorylation of p44/42 mitogen-activated phosphokinase (MAPK, ERK1/2) | could not induce | induced to express increased levels of Mcl-1 | did not observe activation of NF-κB2; also recorded: did not observe translocation of p52 to the nucleus | – | significant greater than that of control treated CLL cells; also recorded: significantly improved the viability of CLL cells | had no effect on CLL cells transfected with SR-IκBα | significantly enhanced the viability of the cells transfected with the control expression plasmid | increased amounts of proteins capable of binding NF-κB consensus motifs
4 | rhBAFF: recombinant human B cell-activating factor of the TNF family | – | – | induced degradation of the inhibitor of kappa B (IκBα) and translocation of p65 to the nuclear fraction; also recorded: induced translocation of p65 to the nucleus | could not induce phosphorylation of p44/42 mitogen-activated phosphokinase (MAPK, ERK1/2) | could not induce | induced to express increased levels of Mcl-1 | could induce activation of NF-κB2; also recorded: could induce translocation of p52 to the nucleus | did not observe significant changes | significant greater than that of control treated CLL cells; also recorded: significantly improved the viability of CLL cells | had no effect on CLL cells transfected with SR-IκBα | significantly enhanced the viability of the cells transfected with the control expression plasmid | increased amounts of proteins capable of binding NF-κB consensus motifs
